From US11136297B2, “Compositions and methods for treating cancer” (THE REGENTS OF THE UNIVERSITY OF CALIFORNIA, priority 2016, dated 2021)

Experiments:
[1] = target: T1, 1-181 H-Ras(G12V/M72C/C118S) (Homo sapiens, UniProt P01112, C118S/G12V/M72C); assay: Coupling of Compound 3 to H-Ras M72C construct for lipid kinase assays; assay type: binding; conditions: M72C construct with 200-250 Compound 3, 72 hours, 4° C.
T1 construct: Plasmids expressing 1-181 H-Ras(G12V/C118S) and H-Ras(G12V/M72C/C118S); His tag (purified on HisTrap, TEV-cleavable) (cleaved yes); made in house; host or cells: Escherichia coli BL21 DE3
Description: Coupling to inhibitor was done in a reaction containing […], 100 mM TCEP, 1 mM MgCl2 and […] Compound 3. DMSO was adjusted to a final concentration of 5%. After 24 hours, more inhibitor was added to a total final concentration of […]. The coupling was allowed to proceed for −72 hours at 4° C. Coupling efficiency was −70%. The coupled protein was exchanged with gel filtration buffer and loaded with GTPgS in the same manner as the H-Ras(G12V) construct. The protein was then run on a Superdex™ 75 10/300 GL size-exclusion column (GE Healthcare) equilibrated in Ras gel filtration buffer to remove excess nucleotide.

[2] = target: T2, H-Ras(M72C) bound to either GDP or GppNHp (Homo sapiens, UniProt P01112, M72C); assay: Electrophile labeling experiments (percent modification by whole protein LC/MS); assay type: binding
T2 construct: Labeling studies were conducted using the 1-166 H-Ras(M72C) construct containing all endogenous cysteines; His6; made in house; host or cells: Escherichia coli BL21(DE3)
Description: Electrophile Labeling Experiments.
Each reaction was analyzed in a 96 well plate format for analysis by LC/MS. Total reaction volumes were 25 μL for single time point labeling experiments and 200 uL for full 24-hour time courses. 25 μL reactions were made in the wells of a V-bottom 96 well plate and 200 uL reactions were made in 1.25 mL eppendorf tubes. All labeling reactions were conducted in Gel Filtration Buffer (20 mM HEPES (pH 7.5), 150 mM NaCl) with no added reductant at room temperature. […] Electrophile stocks were made in DMSO at 10 mM, aliquoted, and frozen. Labeling reactions were started by the addition of the desired volume of 10 mM electrophile stock and mixed thoroughly by pipette. General screening of new electrophiles was done at 100 μM electrophile in triplicate and sampled as a single time point after 24 hours of incubation. For Compound 3, labeling time courses were conducted at 20 μM compound with sampling done every 2 hours for the first 10 hours of incubation and continued after overnight incubation until the protein was fully modified. Reactions were allowed to sit at room temperature in the dark (either covered in aluminum foil or in a bench drawer) until the desired time point was reached. For 24-hour single point labeling experiments, the reaction was directly sampled from the 96 well plate and analyzed by LC/MS. For experiments with multiple time points, 22.5 μL aliquots of the 200 μL master reaction were sampled and quenched by the addition of 2.5 μL of 2% formic acid (also made in Gel Filtration Buffer). This 25 μL quenched sample was then analyzed by LC/MS and the remaining master reaction was allowed to continue reacting after gentle mixing by pipette. The percent modification was analyzed by electrospray mass spectrometry using a Waters Acquity UPLC/ESI-TQD with a 2.1×50 mm Acquity UPLC BEH300 C4 column.

[3] = target: T3, p110d/p85a (PI3K-d) activation by H-Ras-GTP (Homo sapiens, UniProt P01112, C118S/G12V/M72C); assay: PI3K lipid kinase assay with membrane-coupled H-Ras (Transcreener ADP2 FI); assay type: biochemical; conditions: with pY phosphopeptide; H-Ras(G12V) alone gave 20-fold
T3 construct: Plasmids expressing 1-181 H-Ras(G12V/C118S) and H-Ras(G12V/M72C/C118S); His tag (purified on HisTrap, TEV-cleavable) (cleaved yes); made in house; host or cells: Escherichia coli BL21 DE3 (H-Ras)
Description: Purification and Modification of H-Ras Constructs for Lipid Kinase Assays. Plasmids expressing 1-181 H-Ras(G12V/C118S) and H-Ras(G12V/M72C/C118S) were transformed into BL21 DE3 and the culture was induced at OD 0.6-0.9 with […] IPTG. The cultures were then allowed to grow for 4 h at 37° C. after which the cells were pelleted and stored at −80° C. Frozen pellets were re-suspended in lysis buffer and lysed by sonication (10s ON; 10s OFF; Power-6.0). Triton-X was added to a final concentration of 0.1% and lysate was centrifuged at 20,000 g for 45 minutes (Beckman Coulter Avanti J-251, JA 25.50 rotor). The supernatant was loaded on a 5 mL HisTrapTm FF column (GE Healthcare) equilibrated with buffer containing 10 mM imidazole pH 8.0 (NiNTA A). Following washes with 20 mL NiNTA A and 20 mL of 6% buffer containing 200 mM imidazole pH 8.0 (NiNTA B), the protein was eluted in 100% NiNTA B. The elution was buffer exchanged with NiNTA A buffer in a 10,000 MWCO Amicon concentrator (Millipore). The sample was concentrated down to <2 mL and TEV protease was added to −0.3 mg/mL. The cleavage was allowed to proceed overnight at 4° C. To de-enrich the TEV protease, the protein solution was loaded onto a HisTrapTm FF column and eluted with 10 mL of NiNTA A buffer. The elution was concentrated to −2 mL. […]

- Coupling efficiency [1]: 70%
- Percent modification (labeling of Cys 72) ([2]; 4 μM H-Ras(M72C) GDP or GppNHp, 100 μM electrophile, 24 hours): improved covalent binding
- labeling of the GDP state ([2]; H-Ras(M72C) GDP, 20 μM electrophile (1:5 Ras to Compound 3), time course): rapidly and fully labels the GDP state
- modification of the GppNHp state ([2]; H-Ras(M72C) GppNHp, 20 μM electrophile (1:5 Ras to Compound 3)): 88.7%
- activation of PI3K-d activity by H-Ras(G12V/M72C) bound to compound [3]: ~3 fold
SMILES: C=CC(=O)Nc1cc(Cl)cc(NC(=O)c2cnn(-c3ccc(OC)cc3)c2C(F)(F)F)c1 [Compound 3, N-(3-acrylamido-5-chlorophenyl)-1-(4-methoxyphenyl)-5-(trifluoromethyl)-1H-pyrazole-4-carboxamide]
